From publication PMC6036094 (International Journal of Medical Sciences, 2018)
Where two headings read alike, the source gives them in different places.

Assay type: in vivo, Male Wistar rats
Conditions: for Skin tissue-to-plasma concentration ratio / Concentration in kidneys / Concentration in small intestine / Kidney-to-plasma concentration ratio / Small intestine-to-plasma concentration ratio / Concentration in skin tissue: mean ± SD; for concentration at 1 h / concentration at 8 h / concentration at 24 h: male, Wistar, rat, po
[1] = 1 to 24 h after oral administration

OC[C@H]1O[C@@H](c2ccc(F)c(Cc3cc4ccccc4s3)c2)[C@H](O)[C@@H](O)[C@@H]1O [Ipragliflozin, ipragliflozin]
Time course of kidney-to-plasma concentration ratio [1]: tended to increase | Time course of skin tissue-to-plasma concentration ratio [1]: increased in a time-dependent manner | Skin tissue-to-plasma concentration ratio (1 h after oral administration): 0.45±0.20 | Skin tissue-to-plasma concentration ratio (1 h after oral administration, listed as ipragliflozin): 0.45 ± 0.20 | Skin tissue-to-plasma concentration ratio (24 h after oral administration): 5.82±3.66 | Skin tissue-to-plasma concentration ratio (24 h after oral administration, listed as ipragliflozin): 5.82 ± 3.66 | concentration at 1 h (kidneys): 1420 ± 405 ng/g | concentration at 8 h (kidneys): 1090 ± 456 ng/g | concentration at 24 h (kidneys): 301 ± 86.9 ng/g | concentration at 1 h (skin tissue): 152 ± 53.4 ng/g | concentration at 8 h (skin tissue): 168 ± 28.7 ng/g | concentration at 24 h (skin tissue, 1 mg/kg): 90.6 ± 38.9 ng/g | concentration at 1 h (small intestine): 730 ± 377 ng/g | concentration at 8 h (small intestine): 348 ± 105 ng/g

Cc1ccc([C@@H]2O[C@H](CO)[C@@H](O)[C@H](O)[C@H]2O)cc1Cc1ccc(-c2ccc(F)cc2)s1 [Canagliflozin, canagliflozin]
Concentration in kidneys (1 h after oral administration): 802.7 ± 269.2 ng/g | Concentration in small intestine (1 h after oral administration): 2925.2 ± 1074.2 ng/g | Kidney-to-plasma concentration ratio (1 h after oral administration): 3.69±2.84 | Skin tissue-to-plasma concentration ratio (1 h after oral administration): 0.18±0.18 | Small intestine-to-plasma concentration ratio (1 h after oral administration): 12.93±9.88 | Concentration in kidneys (8 h after oral administration): 1014.1 ± 306.0 ng/g | Concentration in skin tissue (8 h after oral administration): 82.6 ± 22.9 ng/g | Concentration in small intestine (8 h after oral administration): 440.1 ± 117.2 ng/g | Kidney-to-plasma concentration ratio (8 h after oral administration): 2.11±0.54 | Skin tissue-to-plasma concentration ratio (8 h after oral administration): 0.17±0.03 | Small intestine-to-plasma concentration ratio (8 h after oral administration): 0.92±0.20 | Concentration in kidneys (24 h after oral administration): 636.2 ± 222.5 ng/g | Concentration in skin tissue (24 h after oral administration): 20.1 ± 11.6 ng/g | Concentration in small intestine (24 h after oral administration): 325.9 ± 218.0 ng/g | Kidney-to-plasma concentration ratio (24 h after oral administration): 7.55±2.62 | Skin tissue-to-plasma concentration ratio (24 h after oral administration): 0.26±0.20 | Small intestine-to-plasma concentration ratio (24 h after oral administration): 4.05±2.83

CCOc1ccc(Cc2cc([C@@H]3S[C@H](CO)[C@@H](O)[C@H](O)[C@H]3O)c(OC)cc2C)cc1 [Luseogliflozin, luseogliflozin]
concentration at 1 h (kidneys): 94.9 ± 74.3 ng/g | concentration at 8 h (kidneys): 80.1 ± 51.7 ng/g | concentration at 1 h (small intestine): 251 ± 178 ng/g

CCOc1ccc(Cc2cc([C@@H]3O[C@H](CO)[C@@H](O)[C@H](O)[C@H]3O)ccc2Cl)cc1 [Dapagliflozin, dapagliflozin]
concentration at 1 h (kidneys): 1030 ± 521 ng/g | concentration at 8 h (kidneys): 531 ± 191 ng/g | concentration at 24 h (kidneys): 170 ± 40.2 ng/g | concentration at 1 h (skin tissue): 42.6 ± 24.7 ng/g | concentration at 8 h (skin tissue): 13 ± 5 ng/g | concentration at 1 h (small intestine): 37.9 ± 10.3 ng/g | concentration at 8 h (small intestine): 19.7 ± 6.7 ng/g

CCc1ccc(Cc2ccc3c(c2)[C@]2(OC3)O[C@H](CO)[C@@H](O)[C@H](O)[C@H]2O)cc1 [Tofogliflozin, tofogliflozin]
Time course of kidney-to-plasma concentration ratio [1]: increased time-dependently | concentration at 1 h (kidneys): 848 ± 116 ng/g | concentration at 8 h (kidneys): 492 ± 101 ng/g | concentration at 24 h (kidneys): 201 ± 42.9 ng/g | concentration at 1 h (skin tissue): 103 ± 29.2 ng/g | concentration at 8 h (skin tissue): 27.1 ± 3.2 ng/g | concentration at 1 h (small intestine): 1360 ± 513 ng/g | concentration at 8 h (small intestine): 250 ± 114 ng/g
